For series [1], the system named is electroencephalogram under normal state. The note with it: deemed to be a side action in clinic; cited from earlier work.
Series [2] deals with lipid peroxidation by active oxygen. As to conditions: cited from earlier work.
The next series has as its system central nervous system. As to conditions: in vivo; cited from earlier work.
Series [3] deals with cerebral ischemia recirculation model. The experiment in a line: Protective action in cerebral ischemia recirculation model. It is filed as in vivo, Wistar-strain male rat. Set-up: key to Presence of electroencephalogram restoration / Judgement of action: The case when restoration of electroencephalogram is judged as +; case when not recognized as -. The note with it: 10 mg/kg into duodenum; 10 min cerebral ischemia (Table 3). The protocol:
(3) Protective action in cerebral ischemia recirculation model
A Wistar-strain male rat weighing about 400 g was administered intramascularly with 0.6 mg of di-tubocurarine to be immobilized and, after a trachea cannulation, the head portion was fixed under artificial respiration on a stereotaxic device. The head skin was cut open, cranial bone was bored, and then bipolar electrode for lead-out of electroencephalogram were placed on the surface of the subdural left frontal cerebral cortex. After the electrode was fixed with the cranial bone by use of dental cement, the animal was held on its back. Next, a cannula for measurement of systemic pressure was placed within the left femoral artery, and a cannula for additional administration of d-tubocurarine within the left femoral vein, respectively. The heart rate was measured and recorded by driving a heart rate meter with the artery wave.
After blood pressure, heart rate and various parameters of electroencephalogram were stabilized, 10 mg/kg of the active ingredient of the present invention prepared in a suspension so as to give 1 ml/kg in 1% tragacanth gum solution was administered directly into duodenum […]. To the control group, only the 1% tragacanth gum solution of the same volume was administered similarly.
Ten to twenty minutes after administration of the medicine, while monitoring the electroencephalogram, blood pressure and heart rate on a multi-purpose monitoring recording device (RM-85 model, produced by Nippon Koden K.K.), the following operations were performed according to the methods shown below for cerebral ischemia loading.
First, ribs were set free at the left costicartilage end to open the chest. Next, cerebral blood flow was blocked for ten minutes by obstructing the left common carotid artery and the left subclavian artery exposed at the aorta originating portion at the same time, and then the brachiocephalic trunk by use of artery clips 30 minutes after administration of the medicine.
Recirculation of cerebral blood flow was effected by releasing at the same time the two artery clips mounted on the respective sites as mentioned above.
The protective action of the medicine for the disorder after recirculation of cerebral ischemia was examined by the presence of restoration of electroencephalogram, and survival time of animal after the recirculation.
During the experiment, the rectal temperature of the animal was maintained at 37° to 38° C. by use of a warming mat. Also, the rectal temperature was continuously drawn on the recorder together with electroencephalogram, femoral artery pressure and heart rate.

Series [4] deals with drowsy pattern of electroencephalogram induced by phenobarbital or pentobarbital sodium salt. The experiment in a line: Antagonistic action against drowsy pattern of electroencephalogram induced by phenobarbital or pentobarbital sodium salt. As to conditions: Rattus norvegicus; intravenous, sodium salt; drowsy EEG after PHB 30 mg/kg or PBT 5 mg/kg; read-out: Antagonistic action at dose or higher. Type of series: in vivo, Wistar-strain male rat. The protocol:
(2) Antagonistic action against drowsy pattern of so electroencephalogram induced by phenobarbital or pentobarbital sodium salt
A Wistar-strain male rat weighing about 400 g was intramasculary administered with 0.6 mg of d-tubocurarine to be immobilized and, while maintaining the rectal temperature at 37° to 38° C. under artificial respiration, the electroencephalogram of the left cerebral frontal cortex was measured and recorded. Also, within the left femoral artery and vein, cannulas for measurement of artery pressure and for administration of medicine were placed, respectively.
As the active ingredient of the present invention, sodium salt of the compound represented by Formula (I) was used and the respective doses of said active ingredient and 30 mg/kg of phenobarbital sodium salt (produced by Iwaki Seiyaku K.K.) (hereinafter called "PHB") or 5 mg/kg of pentobarbital sodium salt (hereinafter called PBT) were each dissolved in physiological saline and administered intravenously in a liquid amount of 1 ml/kg.
The action of the active ingredient of the present invention affecting the cortex electroencephalogram after PHB or PBT administration was investigated as follows; Namely, at the time of 5 minutes or later after PHB or PBT administration when increase of the slow-wave component can be clearly recognized on electroencephalogram, 1, 3, 10, 30 and 100 mg/kg of the active ingredient were administered. To the control group 1 ml/kg of physiological saline was intravenously administered.
Recording and analysis of electroencephalogram were continuously drawn together with artery pressure, heart rate and rectal temperature on the recorder through a multi-purpose monitoring recording device (model RM-85, produced by Nippon Koden K.K.). At the same time, electroencephalogram was recorded in data recorder (model A-65, produced by Sony K.K.), and compressed spectral array analysis was conducted by means of a computer for medical data processing (ATAC-450, produced by Nippon Koden K.K.).

Series [5] has as its system lipid peroxidation (brain homogenate). The experiment in a line: Inhibitory action of lipid peroxidation in brain homogenate (TBA value). Type of series: biochemical. The note with it: inhibition of lipid peroxidation, rat brain homogenate, 37° C., 30 minutes. As to the method: (1) Inhibitory action of lipid peroxidation (a) Preparation of brain homogenate By use of Wister-strain male rat, brain homogenate was prepared following the procedure as described below. […] Next, a brain perfusion was conducted through the tube with ice-cooled 50 mM phosphate-buffered physiological saline (pH 7.4) hereinafter referred to as "PBS"), and the whole brain was extirpated. After removal of cerebellum, the wet weight of cerebrum was measured and, with addition of 9-fold amount of PBS, it was broken by a Teflon homogenizer in ice-water to be homogenized. After the brain homogenate was subjected to centrifugation at 4° C. at 2200 rpm for 10 minutes, 0.3 ml of the supernatant was apportioned into a light-shielding test tube equipped with a ground stopper, to provide a brain homogenate for evaluation of medicine. (b) Evaluation of test medicine To the brain homogenate produced in (a), 0.6 ml of PBS and 10 μl of ethanolic solution of a test medicine were added (to a final concentration of 500 μM or a concentration at a common ratio of 3 between 0.3 and 100 μm), and the mixture was heated in a warm bath at 37° C. for 30 minutes. […] Also, the same operation was performed by addition of 10 μl of ethanol (blank) in place of 10 μl ethanolic solution of the test medicine for measurement of blank. […] After shaking for about 30 seconds, the mixture was subjected to centrifugation at 3000 rpm for 10 minutes, and the supernatant was provided as a sample for measurement of peroxidized lipid.

The conditions of series [6]: cited from earlier work.

The text below walks through data of patent USRE35801E, “Prophylactic and therapeutic composition for circulatory disorders and method of treatment” (priority 1985, dated 1998).

Entries after “also recorded” stand apart in the source; their conditions may differ.

Take `NC(=O)[C@@H]1CCCN1C(=O)[C@H](Cc1cnc[nH]1)NC(=O)[C@@H]1CCC(=O)N1` [TRH, L-pyrroglutamyl-L-histidyl-L-prolineamide]: the “action against electroencephalogram under normal state” value in series [1] is on record as “exhibites an action”.

Regarding `CCN(CC)Cc1nccn1-c1ccc([N+](=O)[O-])cc1C(=O)c1ccccc1Cl` [nizofenone], the “inhibition of lipid peroxidation by active oxygen” value (shortened to “inhibition of lipid peroxidation”) in series [2] was “can inhibit lipid peroxidation by active oxygen”. In the series with central nervous system, the “central nervous system depressant activity” value is “potent central nervous system depressant activity”.

As a reminder, the IC50 is the point on the concentration scale where inhibition reaches its midpoint. `CCCC1=NN(c2ccccc2)C(=O)C1` [Compound 25, 1-Phenyl-3-propyl-2-pyrazolin-5-one]: the “Presence of electroencephalogram restoration” value in series [3] is given as “+”. Moreover, in series [4], the minimal effective dose is no less than 10 mg/kg. In addition, in series [5], the concentration for half-maximal inhibition (IC50) was 5.9 µM.

As for `CC1=NN(c2ccc(C)cc2)C(=O)C1` [Compound 4], the “Presence of electroencephalogram restoration” value in series [3] is reported as “+”. Further, the minimal effective dose in series [4] is no less than 10 mg/kg. This molecule registered a 50% inhibitory concentration (IC50) in series [5] of 6.3 µM.

Regarding vitamin E, the “inhibition of lipid peroxidation” value in series [2] is listed as “can inhibit lipid peroxidation by active oxygen; also recorded: only unsatisfactory action”.

As to `COC1=C(OC)C(=O)C(CCCCCCCCCCO)=C(C)C1=O` [idebenone], the solubilizing in water entry in series [6] is “difficulty in solubilizing in water”. Also, the “inhibition of lipid peroxidation” value in series [2] is on record as “can inhibit lipid peroxidation by active oxygen”.
